Laboratory results from US9259432B1, “Composition and methods for targeted delivery of a therapeutic compound to the brain or spinal cord of a subject for treatment of neurodegenerative diseases” (Parminder J. S. Vig, priority 2011, dated 2016).

Assays:
[1] = system: SHSY5Y cells; assay: 488-S100B uptake in SHSY5Y cells; assay type: cell-based; details: then 1 μM 488-S100B 3 hrs
Experimental: FIG. 14: (a) WT SHSY5Y cells were placed on chamber slides and pretreated with 50 μM Synb1-ELP-TRTK or Synb1-ELP-GGC for 1 hr at 37° C. Next, cells were washed then treated with 1 μM 488-S100B for 3 hrs followed by washing, fixation and DAPI staining. Shown is DAPI nuclear stain in blue and 488-S100B in green. Scale bar: 10 μm. (b) SHSY5Y cells were placed on 6-well plates and pretreated with 50 μM Synb1-ELP-TRTK12 or Synb1-ELP-GGC for 1 hr at 37° C. then treated with 1 μM 488-S100B for 3 hrs, then cells were removed and 488-S100B uptake was measured using flow cytometry. Data is shown as MEAN±STDEV of the % Uptake relative to the control. Statistics were taken using student's t-test. *P<0.05.
SHSY5Y cells (Invitrogen, Carlsbad, Calif., USA) were maintained in DMEM/F12 media (Fisher, Houston, Tex., USA) supplemented with 15% FBS, penicillin-streptomycin (Sigma), and grown in an incubator at 37° C. in the presence of 5% CO2. […] Next, cells were washed then treated with 1 μM 488-S100B for 3 hrs and S100B uptake was analyzed by Epi-fluorescence or by Beckman Cytometric FC 500 flow cytometer as previously described (Bidwell et al., 2009). For flow cytometry experiments, 488-S100B uptake was measured by quenching extracellular fluorescence by coating the cells with Trypan Blue (Fisher) as described previously (Bidwell et al., 2009). […]

[2] = biological target: T1, S100B (Homo sapiens, UniProt P04271); assay: Thermal pull-down assay of ELP polypeptide with S100B; assay type: binding; details: 60 μM polypeptide, western blot with S100B antibody
T1 construct: purchased Sigma-Aldrich
T1 sequence (P04271 2-92 limits assumed): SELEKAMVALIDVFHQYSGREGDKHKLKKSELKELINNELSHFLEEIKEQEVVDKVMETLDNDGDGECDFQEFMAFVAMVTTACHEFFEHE
Experimental: FIG. 9 is a blot showing that CPP-ELP-TRTK12 interacts with S100B protein in vitro. Solutions containing 60 μM Synb1-ELP-TRTK12 or Synb1-ELP were mixed with or without 1 μM S100B in PBS for 30 min at 37° C. The solutions were then incubated in a hot water bath maintained at 50° C. for 5 minutes to induce SynB1-ELP-TRTK12 aggregation. After heating, the solutions were centrifugated at 14,000 rpm to recover the ELP polypeptide aggregates (pellets). The ELP polypeptide pellets were washed 3 times with PBS and reheated and pelleted between washes. To assess ELP polypeptide-S100B interactions, the remaining ELP pellets were subjected to western blotting using a S100B antibody.
Shown are the turbidity assay results of various concentrations of (b) Synb1-ELP-GGC and (c) Synb1-ELP-TRTK heated from 25° C. to 75° C. […] (d) Shown is the thermal pull-down assay procedure, where a solution containing S100B and Synb1-ELP-TRTK protein are allowed to interact at 37° C. in a microcentrifuge tube. […] Once the supernatant is removed the protein pellet can be analyzed by western blotting techniques to reveal protein-protein interactions. […] Solutions containing 60 μM Synb1-ELP-TRTK or Synb1-ELP-GGC (control peptide) were mixed with or without 1 μM S100B and subjected to thermal pull-down assay procedure and analyzed by western blotting using an S100B antibody. […]

interaction with S100B dimer and monomer (FIG. 9) ([2]; 1 μM S100B in PBS, aggregation at 50° C.): strong interaction
interaction with S100B (FIG. 11E) ([2]; 1 μM S100B, thermal cycling at 42° C.): bound both S100B monomers and dimers
Substance: Synb1-ELP-TRTK: thermally responsive S100B inhibitory polypeptide: Synb1 cell penetrating peptide, elastin-like polypeptide (ELP) and TRTK12 peptide fused
488-S100B uptake, epi-fluorescence ([1]; 50 μM pretreatment 1 hr at 37° C.): reduced 488-S100B cellular uptake
488-S100B uptake, flow cytometry ([1]; 50 μM pretreatment 1 hr, vs Control and Synb1-ELP-GGC pretreated cells): significantly reduced 488-S100B uptake
